Where two headings read alike, the source gives them in different places.
Assays:
VM46 colon carcinoma = tested on: VM46 colon carcinoma
Method: Dosing was initiated on Day 1. […] Taxotere was given i.v. at a dose of 70 mg/kg on a qd x 1 schedule.

A2780 ovarian carcinoma = tested on: A2780 ovarian carcinoma
Method: Dosing was initiated on Day 1. […] Taxotere was given i.v. on a qd x 1 schedule at a dose of 70 mg/kg. […] The study was terminated on Day 60. Treatment groups are detailed in Table 7.

A375 melanoma = tested on: A375 melanoma
Method: Dosing was initiated on Day 1. […] Taxotere was given i.v. on a qd x 1 schedule at a dose of 70 mg/kg. […] The study was terminated on Day 60. Treatment groups are detailed in Table 9.

MX-1 carcinoma = tested on: MX-1 carcinoma
Method in brief: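 Mice dosed with a single i.v. bolus (qd x 1) at each compound's MTD, formulated in 5% ethanol, 5% Cremophor, 90% isotonic saline. Study ended Day 60; complete response = tumor not palpable at study end.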

[1] = tested on: Panc-1 pancreatic carcinoma; test: In vivo evaluation against Panc-1 human pancreatic carcinoma (Example 17)
Method: The dosing volume was 0.3 ml per 20 g mouse.
Female NCr-nude mice were implanted subcutaneously with 1 mm^3 Panc-1 pancreatic carcinoma fragments in the flank and sorted into treatment groups of six mice each. […] Dosing was initiated on Day 1. The antitumor compounds were given i.v. at an estimated maximum tolerated dose (MTD) appropriate for each agent on a qd x 1 schedule (single administration of compound). […] The vehicle was administered i.v. to control mice in Group 1 on the qd x 1 schedule. The study was terminated on Day 60.
The mean days of survival is the number of days after which a neoplasm reached a size of 1.5 g and the animal was euthanized. A complete response is obtained if the tumor shrinks to a size smaller than its size on Day 1 of the study.

SK-MES carcinoma = test: In vivo evaluation against SK-MES human lung carcinoma xenograft (i.v., Example 11)
Method: Antitumor compounds were formulated for an i.v. dosing regime prepared in the following vehicle: 10% ethanol, 10% Cremophor and 80% isotonic saline.
Vehicle control animals were dosed twice intravenously with half the total volume being given separated by one hour. The study was terminated on Day 60.
A complete response is obtained if the tumor is not palpable at the end of the study.
A tumor scoring system was designed to provide a more quantitative ranking of efficacy (therapeutic potential) among the antitumor agents evaluated against the different human solid tumor xenografts. Each mouse in a study was given a score of from 1 to 10 at the end of the study. The scores can be summarized as follows:
The individual score for each mouse was averaged into a mean score for each treatment group. […]

DU145 prostate carcinoma = tested on: DU145 prostate carcinoma
Description: Dosing was initiated on Day 1. […] Treatment groups are detailed in Table 5.

HCT116 = test: In Vitro cytotoxicity measured by the cell colony formation assay; type: cell-based, human; conditions: Homo sapiens, HCT-116; read-out: IN VITRO ID 50 HCT116
Method in brief: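 Four hundred cells per dish in McCoy's 5a medium with 10% FBS were allowed to attach for 5 h at 37 °C. They were then exposed to compound for 72 h at 37 °C, added as a 10× stock made fresh in medium. After HBSS rinsing and refeeding, colonies were counted after 7 days.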

[2] = VM46, i.v. qd x 1, six mice per group
[3] = number of mice, i.v. qd x 1, mg/kg: Taxol 24, 0499 77, 0503 72.6, 0670 123.1, 0706 107.6, 0838 72.6, 0854 46.6, 0983 67.4, Taxotere 70, 6 mice/group, Day 64
[4] = number of mice, i.v. qd x 1 at estimated MTD (Taxol 24 mg/kg, Taxotere 70 mg/kg, 0983 72.6 mg/kg), 5 mice/group (Taxotere 6), Day 60
[5] = number of mice, i.v. qd x 1 at estimated MTD (Taxol 24 mg/kg, Taxotere 70 mg/kg), 6 mice/group (Taxotere 7), Day 60
[6] = number of mice, i.v. qd x 1, mg/kg: Taxol 36, 0499 77, 0503 72.6, 0670 123.1, 0706 107.6, 0838 72.6, 0854 76.9, 6 mice/group, Day 60
[7] = number of 5 mice, i.v. qd x 1 at estimated MTD (Taxol 24 mg/kg split), Day 91

## CCC(=O)O[C@H]1C(=O)[C@@]2(C)[C@H]([C@H](OC(=O)c3ccccc3)[C@]3(O)C[C@H](OC(=O)[C@H](O)[C@@H](NC(=O)OC(C)(C)C)c4ccccn4)C(C)=C1C3(C)C)[C@]1(OC(C)=O)CO[C@@H]1C[C@@H]2O [Compound 0503]
VM46 colon carcinoma; VM46, i.v. qd x 1
  tolerability: well-tolerated
VM46 colon carcinoma; VM46, i.v. qd x 1 (compounds estimated MTD; Taxol 24 mg/kg split), six mice per group, ended Day 64
  partial responses: four
VM46 colon carcinoma; [2]
  Stable Disease: two
  Toxic Deaths: no toxic deaths
VM46 colon carcinoma; VM46, i.v. qd x 1 at estimated MTD
  response rate: 66.7%
VM46 colon carcinoma; number of mice, i.v. qd x 1, mg/kg: Taxol 24, 0499 77, 0503 72.6, 0670 123.1, 0706 107.6, 0838 72.6, 0854 46.6, 0983 67.4, Taxotere 70, 6 mice/group
  Toxic Deaths: 0
VM46 colon carcinoma; [3]
  Complete Response: 0
  Partial Response: 4
  Stable Disease: 1
  Survivors: 5
VM46 colon carcinoma; tumor scoring system, i.v. qd x 1, mg/kg: Taxol 24, 0499 77, 0503 72.6, 0670 123.1, 0706 107.6, 0838 72.6, 0854 46.6, 0983 67.4, Taxotere 70, 6 mice/group
  Mean Score: 7.3 ± 1.2
A2780 ovarian carcinoma; A2780, i.v. qd x 1
  antitumor activity: did not cause any complete responses, partial responses, or cases of stable disease
A2780 ovarian carcinoma; mean days of survival until neoplasm reached 2.0 g, i.v. qd x 1 at estimated MTD (Taxol 24 mg/kg, Taxotere 70 mg/kg, 0983 72.6 mg/kg), 5 mice/group (Taxotere 6), terminated Day 60
  MDS (n): 32.4 ± 4.7 (5) days
A2780 ovarian carcinoma; number of mice, i.v. qd x 1 at estimated MTD (Taxol 24 mg/kg, Taxotere 70 mg/kg, 0983 72.6 mg/kg), 5 mice/group (Taxotere 6)
  Toxic Deaths: 0
A2780 ovarian carcinoma; [4]
  Complete Response: 0
  Partial Respons: 0
  Stable Disease: 0
  Survivors: 0
A2780 ovarian carcinoma; tumor scoring system, i.v. qd x 1 at estimated MTD (Taxol 24 mg/kg, Taxotere 70 mg/kg, 0983 72.6 mg/kg), 5 mice/group (Taxotere 6)
  Mean Score: 2.8 ± 0.2
A375 melanoma; A375, i.v. qd x 1
  survival extension compared to Group 1 controls: 95%
A375 melanoma; A375, i.v. qd x 1, six mice per group
  Complete Response: 1
A375 melanoma; mean days of survival until neoplasm reached 2.0 g, i.v. qd x 1 at estimated MTD (Taxol 24 mg/kg, Taxotere 70 mg/kg), 6 mice/group (Taxotere 7), terminated Day 60
  MDS (n): 28.1 ± 5.8 (3) days
A375 melanoma; number of mice, i.v. qd x 1 at estimated MTD (Taxol 24 mg/kg, Taxotere 70 mg/kg), 6 mice/group (Taxotere 7)
  Toxic Deaths: 2
A375 melanoma; [5]
  Complete Response: 1
  Partial Response: 0
  Stable Disease: 0
  Survivors: 1
A375 melanoma; tumor scoring system, i.v. qd x 1 at estimated MTD (Taxol 24 mg/kg, Taxotere 70 mg/kg), 6 mice/group (Taxotere 7)
  Mean Score: 2.8 ± 1.5
MX-1 carcinoma; MX-1, single i.v. MTD
  treated animals with durable complete responses and partial responses: 100%
MX-1 carcinoma; i.v. qd x 1 at MTD, 6 mice/group, Day 60, doses as in E17
  Mean Score: 9.7 ± 0.2
MX-1 carcinoma; number of 6 mice, tumor did not reach 2.0 g by end of study, i.v. qd x 1 at MTD, Day 60, doses as in E17
  Stable Disease: 0
MX-1 carcinoma; number of 6 mice, tumor not palpable at end of study, i.v. qd x 1 at MTD, Day 60, doses as in E17
  Complete Response: 4
MX-1 carcinoma; number of 6 mice, tumor smaller than on Day 1, i.v. qd x 1 at MTD, Day 60, doses as in E17
  Partial Response: 2
MX-1 carcinoma; number of 6 mice, i.v. qd x 1 at MTD, Day 60, doses as in E17
  Survivors: 6
MX-1 carcinoma; number of 6 mice, i.v. qd x 1 at MTD, Day 60, mg/kg: Taxol 36 (split dose), 0503 72.6, 0536 49, 0663 159, 0670 123, 0687 159, 0706 108, 0908 159, 0947 76.9, 0951 72.6, 0983 67.4, 0999 49, 1003 49, 1011 108
  Toxic Deaths: 0
[1]; Panc-1 (Example 17), i.v. qd x 1 (compounds estimated MTD; Taxol 36 mg/kg split), days until tumor 1.5 g, ended Day 60
  MDS: 47 to 56 days
[1]; Panc-1 (Example 17), i.v. qd x 1, six mice per group
  Stable Disease: three
[1]; mean days of survival until neoplasm reached 1.5 g, i.v. qd x 1, mg/kg: Taxol 36, 0499 77, 0503 72.6, 0670 123.1, 0706 107.6, 0838 72.6, 0854 76.9, 6 mice/group, terminated Day 60
  MDS (n): 52.5 ± 2.1 (3) days
[1]; number of mice, i.v. qd x 1, mg/kg: Taxol 36, 0499 77, 0503 72.6, 0670 123.1, 0706 107.6, 0838 72.6, 0854 76.9, 6 mice/group
  Toxic Deaths: 0
[1]; [6]
  Complete Response: 0
  Partial Response: 0
  Stable Disease: 3
  Survivors: 3
[1]; tumor scoring system, i.v. qd x 1, mg/kg: Taxol 36, 0499 77, 0503 72.6, 0670 123.1, 0706 107.6, 0838 72.6, 0854 76.9, 6 mice/group
  Mean Score: 3.6 ± 0.4
SK-MES carcinoma; SK-MES, 0503 72.1 mg/kg i.v.
  antitumor activity: highly active
SK-MES carcinoma; SK-MES, i.v. MTD in two half doses one hour apart, qd x 1, Taxol 36 mg/kg, 0503 72.1 mg/kg, days until tumor 1.5 g, ended Day 60
  MDS (n): 46.0 ± 0(2) days
SK-MES carcinoma; SK-MES, i.v. split dose qd x 1, six mice per group
  Toxic Deaths: 0
SK-MES carcinoma; SK-MES, i.v. split dose qd x 1, six mice per group, Day 60
  Survivors: 4
SK-MES carcinoma; SK-MES, i.v. split dose qd x 1, tumor below 1.5 g at termination
  Stable Disease: 1
SK-MES carcinoma; SK-MES, i.v. split dose qd x 1, tumor smaller than on Day 1
  Partial Response: 0
SK-MES carcinoma; SK-MES, tumor score 1 to 10 per mouse, group mean
  Mean Score: 6.5 ± 1.6
SK-MES carcinoma; mouse, in vivo, iv, 72.1 mg/kg
  tolerability: well tolerated
DU145 prostate carcinoma; DU145, i.v. qd x 1 at estimated MTD, five mice per group
  total response rate: at least 50%
DU145 prostate carcinoma; i.v. qd x 1 at estimated MTD (Taxol 24 mg/kg split), 5 mice/group, Day 91
  Mean Score: 6.2 ± 1.9
DU145 prostate carcinoma; number of 5 mice, tumor did not reach 1.5 g by end of study, i.v. qd x 1 at estimated MTD (Taxol 24 mg/kg split), Day 91
  Stable Disease: 2
DU145 prostate carcinoma; number of 5 mice, i.v. qd x 1 at estimated MTD (Taxol 24 mg/kg as two split doses), Day 91
  Toxic Deaths: 1
DU145 prostate carcinoma; [7]
  Complete Response: 2
  Partial Response: 0
  Survivors: 4
HCT116
  IC50: < 1 nM

From patent EP1285920A1, “C10 Ester sustituted taxanes as antitumor agents” (Florida State University Research Foundation, Inc., priority 2001, dated 2003)
